Reference: patent publication US6906049B1, “Contraceptive medicine based on a progestational agent and an oestrogen and preparation method” (Laboratoire Theramex, priority 1996, dated 2005)

Columns and labels:
[1] = test system: ovulation; conditions: cited from earlier work
[2] = test system: female volunteers in the period of ovarian activity; experiment: Randomized double-blind study of the anti-ovulatory action of the oestradiol/nomegestrol acetate combination in 38 female volunteers; format: in vivo, women; conditions: day 1-21, m ± sem
Procedure: The anti-ovulatory action of the oestradiol/nomegestrol acetate combination was evaluated in a randomized double-blind study on 38 female volunteers, in good health, aged 18 to 35, in the period of ovarian activity, for whom it was checked beforehand, by means of an assay of the progesterone in the plasma and the establishment of a temperature curve, that they had ovulatory menstrual cycles.
The women were monitored for two consecutive cycles: the first was a control cycle without treatment; during the following cycle (cycle under treatment), they received a hormonal treatment administered orally daily from the 1st to the 21st day of the cycle.
According to the randomization: • 9 women received 1.5 mg of oestradiol+0.625 mg of nomegestrol acetate (group A), • 10 others received 1.5 mg of oestradiol+1.25 mg of nomegestrol acetate (group B), • another 10 received 1.5 mg of oestradiol+2.5 mg of nomegestrol acetate (group C), • and the other 9 were treated with nomegestrol acetate alone at a dose of.2.5 mg (group D).
During the control cycle, the hormonal parameters were not significantively different among the four groups. Table I indicates the mean concentrations observed for each hormonal parameter in the course of the 21 days of treatment.

[3] = test system: ovulation; experiment: Inhibition of ovulation in women (literature data); format: in vivo; conditions: as defined by Neumann (1977)
Procedure: The oestrogenic component involves oestradiol or an ester or an ether thereof, such as, for example, the valerate, benzoate, enanthate, etc., the doses used being calculated as oestradiol equivalents. The doses range from 0.3 mg to 3 mg per day with a preference for a range from 0.5 mg to 2 mg per day. According to the literature data (Hirvonen, 1995), a dose of 4 mg is needed to ensure the inhibition of ovulation, but they correspond to the doses used to compensate for hypooestrogenic states. For example, in menopausal women, the dose recommended to compensate for hypooestrogenic states is about 1.5 mg.
(§1) The ratio of the ovulation-inhibiting activity in women (in mg/day) to the endometrial luteinizing |activity (in mg/cycle) as defined by Neumann (1977) is thus in the order of 0.2, i.e. close to those of cyproterone acetate and chlormadinone acetate; this indicates a strong central activity (Oettel et al., 1999). In this sense, it clearly differs from dienogest, whose activity is disequilibrated to the benefit of the peripheral activity.

[4] = test system: women; experiment: Another clinical trial, same methodology, with the progestative agent alone; format: in vivo; conditions: NOMAC 1.25 mg alone (n=3), treated cycle
Procedure: This synergistic effect of oestradiol is confirmed by comparing the results of this study with those of another clinical trial performed according to the same methodology, but with the progestative agent alone. […] On the other hand, the addition of oestradiol lowers the plasmatic levels of oestradiol, assayed 24 hours after taking the medicinal product, by about […]; this parameter is a good reflection of the endogenous secretion of the ovaries (Table II).

[5] = test system: endometrium; experiment: Clinical trial similar to the Kaufmann's trial (endometrial conversion); format: in vivo, women
Excerpt: as §1

For `C[C@]12CC[C@@H]3c4ccc(O)cc4CC[C@H]3[C@@H]1CC[C@@H]2O` [oestradiol, 17beta-oestradiol], which “Dose needed to ensure the inhibition of ovulation” value ([1]; oestradiol alone, Hirvonen, 1995) is on record?
The value was 4 mg.

Which “LH mean concentration in the plasma” value ([2]; Group D (n=9): 2.5 mg NOMAC alone oral daily) does the source give for `CC(=O)O[C@]1(C(C)=O)CC[C@H]2[C@@H]3C=C(C)C4=CC(=O)CC[C@@H]4[C@H]3CC[C@@]21C` [NOMAC, nomegestrol acetate] here?
Its value is 5.6 ± 0.62 mIU/ml.

What about the “FSH mean concentration in the plasma” value ([2]; Group D: 2.5 mg NOMAC alone) of the same compound?
Its value is 7.6 ± 0.28 mIU/ml.

What about the “Oestradiol mean concentration in the plasma” value ([2]; Group D: 2.5 mg NOMAC alone) of the same compound?
The value was 31.9 ± 3.91 pg/mL.

What about the “Progesterone mean concentration in the plasma” value ([2]; Group D: 2.5 mg NOMAC alone) of the same compound?
Its value is 0.07 ± 0.014 ng/mL.

What about the Effect on ovulation ([1]; given alone at 1.25 mg per day, oestradiol level in plasma increases) of the same compound?
The Effect on ovulation was “abolishes ovulation”.

And the “Daily dose giving inhibition of ovulation and of follicle development in women” value ([1]; nomegestrol acetate alone, Bazin et al., 1987)?
Its value is 2.5 mg.

And the “Ratio of ovulation-inhibiting activity (mg/day) to endometrial luteinizing activity (mg/cycle)” value [3]?
The value was ~0.2.

And the “FSH mean concentration in the plasma” value [4]?
The value was 3.3 mIU/ml.

What about the “LH mean concentration in the plasma” value [4] of the same compound?
The value was 3.1 mIU/ml.

What about the “Oestradiol mean concentration in the plasma” value [4] of the same compound?
Its value is 158.8 pg/mL.

And the “Daily dose giving endometrial conversion” value ([5]; daily dose)?
The value was 1 mg.

What about the “Dose for the entire cycle giving endometrial conversion” value ([5]; entire cycle) of the same compound?
The value was 10 mg.
